Test results taken from ChEMBL document CHEMBL1133150, “N-formyl hydroxylamine containing dipeptides: generation of a new class of vasopeptidase inhibitors” (Bioorg Med Chem Lett, 2000).

How the values were obtained:
[1] = biological target: T1, Angiotensin-converting enzyme (Oryctolagus cuniculus, UniProt P12822); test: Inhibition of Angiotensin I converting enzyme
T1 sequence (P12822 whole entry): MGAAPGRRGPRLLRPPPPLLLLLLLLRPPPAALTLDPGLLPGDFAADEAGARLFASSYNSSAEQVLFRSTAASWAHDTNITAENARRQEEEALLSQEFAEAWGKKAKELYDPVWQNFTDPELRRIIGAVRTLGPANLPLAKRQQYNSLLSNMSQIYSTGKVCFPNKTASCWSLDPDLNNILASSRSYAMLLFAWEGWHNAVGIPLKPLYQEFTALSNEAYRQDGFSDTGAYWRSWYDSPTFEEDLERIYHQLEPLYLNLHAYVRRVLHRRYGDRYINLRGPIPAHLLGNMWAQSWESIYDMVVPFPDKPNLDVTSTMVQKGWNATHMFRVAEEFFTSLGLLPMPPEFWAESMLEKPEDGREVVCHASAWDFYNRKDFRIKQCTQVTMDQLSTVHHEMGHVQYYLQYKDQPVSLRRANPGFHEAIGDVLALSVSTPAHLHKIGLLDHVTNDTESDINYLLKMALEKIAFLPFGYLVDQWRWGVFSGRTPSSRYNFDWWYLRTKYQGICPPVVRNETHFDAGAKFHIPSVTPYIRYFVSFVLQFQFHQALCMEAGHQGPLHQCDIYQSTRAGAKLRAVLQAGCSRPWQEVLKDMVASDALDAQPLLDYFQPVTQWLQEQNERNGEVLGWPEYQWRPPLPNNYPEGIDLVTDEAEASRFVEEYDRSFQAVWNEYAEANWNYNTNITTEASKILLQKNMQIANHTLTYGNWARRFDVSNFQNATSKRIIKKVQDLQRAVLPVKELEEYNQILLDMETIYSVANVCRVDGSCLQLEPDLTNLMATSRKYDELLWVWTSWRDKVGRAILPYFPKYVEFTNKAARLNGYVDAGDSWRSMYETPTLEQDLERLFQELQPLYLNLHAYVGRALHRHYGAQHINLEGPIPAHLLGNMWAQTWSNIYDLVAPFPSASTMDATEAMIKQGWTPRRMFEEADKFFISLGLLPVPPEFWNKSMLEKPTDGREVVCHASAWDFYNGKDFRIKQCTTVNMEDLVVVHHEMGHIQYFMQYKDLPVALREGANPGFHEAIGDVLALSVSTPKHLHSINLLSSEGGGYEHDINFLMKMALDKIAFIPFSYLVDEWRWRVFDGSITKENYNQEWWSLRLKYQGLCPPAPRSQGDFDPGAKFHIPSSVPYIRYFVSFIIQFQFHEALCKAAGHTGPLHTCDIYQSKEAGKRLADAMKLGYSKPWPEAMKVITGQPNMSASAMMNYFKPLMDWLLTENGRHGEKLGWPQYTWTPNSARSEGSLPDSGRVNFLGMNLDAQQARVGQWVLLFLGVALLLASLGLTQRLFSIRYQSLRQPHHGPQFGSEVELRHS

[2] = biological target: T2, Neprilysin (Rattus norvegicus, UniProt P07861); test: Inhibition of Neutral endopeptidase
T2 sequence (P07861 whole entry): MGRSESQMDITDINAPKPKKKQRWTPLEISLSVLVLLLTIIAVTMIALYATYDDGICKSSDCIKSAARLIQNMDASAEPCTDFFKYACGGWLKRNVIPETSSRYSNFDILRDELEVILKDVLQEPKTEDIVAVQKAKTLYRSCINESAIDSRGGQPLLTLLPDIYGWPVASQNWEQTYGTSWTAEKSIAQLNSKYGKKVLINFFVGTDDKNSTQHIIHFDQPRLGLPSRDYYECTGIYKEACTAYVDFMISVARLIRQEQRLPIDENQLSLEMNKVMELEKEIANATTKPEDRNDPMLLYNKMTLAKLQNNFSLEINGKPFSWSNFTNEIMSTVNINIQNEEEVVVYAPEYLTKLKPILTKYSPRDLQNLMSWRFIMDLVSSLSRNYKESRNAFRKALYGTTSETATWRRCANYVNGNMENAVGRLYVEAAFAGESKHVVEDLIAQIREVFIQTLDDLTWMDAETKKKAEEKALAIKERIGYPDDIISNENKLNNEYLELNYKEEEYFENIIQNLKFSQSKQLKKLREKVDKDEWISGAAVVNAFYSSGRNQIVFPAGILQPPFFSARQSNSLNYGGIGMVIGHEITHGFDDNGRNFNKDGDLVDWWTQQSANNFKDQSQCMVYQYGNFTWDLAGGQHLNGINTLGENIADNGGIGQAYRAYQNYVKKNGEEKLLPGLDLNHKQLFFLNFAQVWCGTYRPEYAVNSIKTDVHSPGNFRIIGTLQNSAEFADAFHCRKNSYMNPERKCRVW

Structure (SMILES) | IC50 [1] [nM] | IC50 [2] [nM]
CC(C)C[C@H](NC(=O)[C@H](Cc1ccccc1)N(O)C=O)C(=O)N[C@@H](Cc1ccccc1)C(=O)O | 228000 | 93000
CC(C)C[C@H](NC(=O)C(Cc1ccccc1)CN(O)C=O)C(=O)N[C@@H](Cc1ccccc1)C(=O)O (stereo not given in full) | 106 | 1270
CC(=O)N(O)CC(Cc1ccccc1)C(=O)N[C@@H](CC(C)C)C(=O)N[C@@H](Cc1ccccc1)C(=O)O (stereo not given in full) | 461000 | 214000
CC(C)C[C@H](NC(=O)C(Cc1ccccc1)CN(O)C(N)=O)C(=O)N[C@@H](Cc1ccccc1)C(=O)O (stereo not given in full) | 529000 | 705000

Stronger by IC50 [1], values ahead:

IC50 [1] [nM] | IC50 [2] [nM] | Structure (SMILES)
3.4 | 1.8 | O=CN(O)C[C@@H](Cc1ccccc1)C(=O)N[C@H]1Cc2ccccc2[C@H]2CCC[C@@H](C(=O)O)N2C1=O
5.3 | 1.3 | O=CN(O)C[C@@H](Cc1ccccc1)C(=O)N[C@H]1CCc2ccccc2N(CC(=O)O)C1=O
5.4 | 18 | CC1(C)CCC[C@H](NC(=O)[C@H](Cc2ccccc2)CN(O)C=O)C(=O)N1CC(=O)O
7 | 20 | CS(=O)(=O)N[C@@H](CCCCN)C(=O)NC[C@H](CC1(C(=O)N[C@@H](Cc2ccc(O)cc2)C(=O)O)CCCC1)C(=O)O [SAMPATRILAT]
6 | 9 | O=C(N[C@H]1CCS[C@H]2CCC[C@@H](C(=O)O)N2C1=O)[C@@H](S)Cc1ccccc1 [OMAPATRILAT]
25 | 3 | CC(C)[C@H](NCP(=O)(O)O)C(=O)N[C@@H](Cc1ccc(-c2ccccc2)cc1)C(=O)O
